Assay results as given in US20250099634A1, “METHOD OF TREATING CANCER” (Novartis AG, priority 2023, published 2025).
Where two headings read alike, the source gives them in different places.

Experiments:
[1] = system: Grade 2 and Grade 3 advanced GEP-NET; experiment: NETTER-2 best overall response, ORR and DCR, central review using RECIST 1.1; assay type: in vivo, human; details: for ORR: central assessment
Source text: Objective Response Rate (ORR) will be calculated as the rate of patients with a best overall response of partial response (PR) or complete response (CR). Response duration will be calculated from the time of initial response until documented tumor progression. The Duration of Response (DOR) is defined as the time from initially meeting the criteria for response (CR or PR) until the time of progression by RECIST or death due to underlying disease. DOR will be reported descriptively for each group without comparison between groups.
Overall response rate (ORR) is defined as the proportion of subjects with best overall response (BOR) of complete response (CR) or partial response (PR), as per central review and according to RECIST 1.1.
ORR will be calculated based on the FAS and according to the ITT principle. ORR and its 95% confidence interval will be presented by treatment group. The Cochran-Mantel-Haenszel chi-square test, stratified by the randomization stratification factors, will be used to compare ORR between the two treatment groups, at the 1-sided 2.5% level of significance. As a supportive analysis, ORR as per local review will be presented by treatment group, along with 95% confidence intervals.
More precisely, it counts the presence of at least one confirmed CR or confirmed PR or SD. The DCR will be calculated based on FAS according to the ITT principle. DCR and its 95% confidence interval will be presented by treatment group. The Cochrane-Mantel-Haenszel chi-square test, stratified by the randomization stratification factors, will be used to compare DCR between the two treatment groups, at the one-sided 2.5% level of significance. The p-value to be generated using the Cochrane-Mantel-Haenszel chi-square test is considered nominal, and not to be considered confirmatory as it is not part of the testing strategy. The SAP will advise on how to proceed in case of few events in any stratum.

[2] = NETTER-1 control arm, high dose (60 mg); cited from earlier work
[3] = All grades, randomized treatment period, Safety Set
[4] = Grade >=3, randomized treatment period, Safety Set
[5] = all grades, randomized treatment period
[6] = most frequent AEs, summary table
[7] = central review, Full Analysis Set

With C[C@@H](O)[C@@H]1NC(=O)[C@H](CCCCN)NC(=O)[C@@H](Cc2c[nH]c3ccccc23)NC(=O)[C@H](Cc2ccccc2)NC(=O)[C@@H](NC(=O)[C@H](N)Cc2ccccc2)CSSC[C@@H](C(=O)N[C@H](CO)[C@@H](C)O)NC1=O [Octreotide LAR, octreotide] the “AEs leading to discontinuation of Any Treatment (Lutathera, Octreotide)” value [3] was 2 (2.7) n (%), the “AEs leading to discontinuation of Octreotide” value [3] was 2 (2.7) n (%) and the “AEs leading to dose interruption of Any Treatment (Lutathera, Octreotide)” value [3] was 11 (15.1) n (%). The “AEs leading to dose interruption of Octreotide” value [3] was 11 (15.1) n (%), the “AEs leading to dose reduction of Any Treatment (Lutathera, Octreotide)” value [3] was 1 (1.4) n (%) and the “AEs leading to dose reduction of Octreotide” value [3] was 1 (1.4) n (%). The “Adverse event: Abdominal pain” value [3] was 20 (27.4) n (%), the “Adverse event: Alanine aminotransferase increased” value [3] was 10 (13.7) n (%) and the “Adverse event: Alopecia” value [3] was 1 (1.4) n (%). For the same compound, the “Adverse event: Anaemia” value [3] was 5 (6.8) n (%), the “Adverse event: Aspartate aminotransferase increased” value [3] was 8 (11.0) n (%) and the “Adverse event: Asthenia” value [3] was 9 (12.3) n (%). The “Adverse event: COVID-19” value [3] was 10 (13.7) n (%), the “Adverse event: Constipation” value [3] was 6 (8.2) n (%) and the “Adverse event: Decreased appetite” value [3] was 7 (9.6) n (%). The “Adverse event: Diarrhoea” value [3] was 25 (34.2) n (%), the “Adverse event: Gamma-glutamyltransferase increased” value [3] was 8 (11.0) n (%) and the “Adverse event: Headache” value [3] was 5 (6.8) n (%). For the same compound, the “Adverse event: Hyperglycaemia” value [3] was 11 (15.1) n (%), the “Adverse event: Lymphocyte count decreased” value [3] was 0 n (%) and the “Adverse event: Oedema peripheral” value [3] was 6 (8.2) n (%). For the same compound, the “Adverse event: Platelet count decreased” value [3] was 4 (5.5) n (%), the “Adverse event: Vomiting” value [3] was 6 (8.2) n (%) and the “Adverse event: Weight increased” value [3] was 5 (6.8) n (%). For the same compound, the “Adverse event: White blood cell count decreased” value [3] was 3 (4.1) n (%), the Adverse events [3] was 69 (94.5) n (%) and the “Adverse events Related to Any Treatment” value [3] was 43 (58.9) n (%). The “Adverse events Related to Octreotide” value [3] was 43 (58.9) n (%), the “Adverse events: Number of subjects with at least one event” value [3] was 69 (94.5) n (%) and the “AEs leading to discontinuation of Any Treatment (Lutathera, Octreotide)” value [4] was 2 (2.7) n (%). For the same compound, the “AEs leading to discontinuation of Octreotide” value [4] was 2 (2.7) n (%), the “AEs leading to dose interruption of Any Treatment (Lutathera, Octreotide)” value [4] was 5 (6.8) n (%) and the “AEs leading to dose interruption of Octreotide” value [4] was 5 (6.8) n (%). The “AEs leading to dose reduction of Any Treatment (Lutathera, Octreotide)” value [4] was 1 (1.4) n (%), the “AEs leading to dose reduction of Octreotide” value [4] was 1 (1.4) n (%) and the “Adverse event: Abdominal pain” value [4] was 3 (4.1) n (%). For the same compound, the “Adverse event: Alanine aminotransferase increased” value [4] was 2 (2.7) n (%), the “Adverse event: Alopecia” value [4] was 0 n (%) and the “Adverse event: Anaemia” value [4] was 1 (1.4) n (%). The “Adverse event: Aspartate aminotransferase increased” value [4] was 2 (2.7) n (%), the “Adverse event: Asthenia” value [4] was 0 n (%) and the “Adverse event: COVID-19” value [4] was 0 n (%). For the same compound, the “Adverse event: Constipation” value [4] was 0 n (%), the “Adverse event: Decreased appetite” value [4] was 0 n (%) and the “Adverse event: Diarrhoea” value [4] was 1 (1.4) n (%). For the same compound, the “Adverse event: Gamma-glutamyltransferase increased” value [4] was 2 (2.7) n (%), the “Adverse event: Headache” value [4] was 0 n (%) and the “Adverse event: Hyperglycaemia” value [4] was 2 (2.7) n (%). For the same compound, the “Adverse event: Lymphocyte count decreased” value [4] was 0 n (%), the “Adverse event: Oedema peripheral” value [4] was 1 (1.4) n (%) and the “Adverse event: Platelet count decreased” value [4] was 0 n (%). The “Adverse event: Vomiting” value [4] was 1 (1.4) n (%), the “Adverse event: Weight increased” value [4] was 0 n (%) and the “Adverse event: White blood cell count decreased” value [4] was 0 n (%). The Adverse events [4] was 20 (27.4) n (%), the “Adverse events Related to Any Treatment” value [4] was 3 (4.1) n (%) and the “Adverse events Related to Octreotide” value [4] was 3 (4.1) n (%). The “Adverse events: Number of subjects with at least one event” value [4] was 20 (27.4) n (%), the “adverse event by preferred term: abdominal pain” value [5] was 27.4% and the “adverse event by preferred term: diarrhoea” value [5] was 34.2%. The “Incidence of AEs: Abdominal pain” value [6] was 20 (27.4) (%), the “Incidence of AEs: Diarrhoea” value [6] was 25 (34.2) (%) and the “AEs leading to discontinuation of Lutathera and/or Octreotide” value (randomized treatment period) was 2.7%. The “AEs leading to discontinuation of Octreotide” value (randomized treatment period) was 2.7%, the “Any AEs” value (randomized treatment period) was 94.5% and the “Grade 3/4 AE: GGT increased” value (randomized treatment period) was 2.7%. For the same compound, the “Grade 3/4 AE: Lymphocyte count decreased” value (randomized treatment period) was 0%, the “Grade 3/4 AE: abdominal pain” value (randomized treatment period) was 4.1% and the “Grade 3/4 AE: small intestinal obstruction” value (randomized treatment period) was 0%. The “Grade ≥3 AEs” value (randomized treatment period) was 27.4%, the “Grade ≥3 AEs, Treatment-related” value (randomized treatment period) was 4.1% and the ORR ([1]; listed as High-dose Octreotide) was 9.3%. For the same compound, the ORR ([1]; listed as high-dose Octreotide) was 9.3% (3.8%, 18.3%) for Lutathera vs. high-dose, the “Best Overall Response: Complete Response (CR)” value [1, 7] was 0 n (%) and the “Best Overall Response: Non-CR/Non-PD” value [1, 7] was 1 (1.3) n (%). For the same compound, the “Best Overall Response: Partial Response (PR)” value [1, 7] was 7 (9.3) n (%), the “Best Overall Response: Progressive Disease (PD)” value [1, 7] was 14 (18.7) n (%) and the “Best Overall Response: Unknown” value [1, 7] was 11 (14.7) n (%). The “Overall Response Rate (ORR: CR + PR)” value [1, 7] was 7 (9.3) n (%) and the side effects [2] was “without notable side effects”.
